Test: Measurement of pKa values of pH-sensitive cyanine dyes (fluorescence intensity versus pH)
Format: physicochemical
Conditions: for pKa: observed in aqueous phosphate buffers via fluorescence, excitation 640 nm, emission 680 nm; for lowering of dye pKa relative to dye 1: Cl on the unquaternized indolenine unit
Protocol: The general method of pKa determination was performed as follows. Purified dye was dissolved in water to give a bulk stock solution (if necessary, a limited amount of acetonitrile was added to ensure solubility). By experiment, the volume of this stock solution that was required to be added to 10.0 ml of water+0.1% v/v trifluoroacetic acid, in order to give an absorbance of 0.5±0.02 at the dye peak wavelength, was determined. This volume of bulk stock solution was then added to 10.0 ml of water, to be used as the working stock solution.
Aqueous phosphate buffers were prepared covering the region of pH 4-9 {see “Data for Biochemical Research”, p. 432, 3rd edition, R. M. C Dawson, D. C. Elliott, W. H. Elliott & K. M. Jones, 1987 Oxford University Press. Buffers outside the listed range were made by adding in orthophosphoric acid or sodium hydroxide}. Plastic fluorescence cuvettes were then charged with 3.5 ml of each buffer. A fixed volume of dye working stock solution (in the range 50-250 μl) was added to a cuvette of buffer, the solution mixed and the fluorescence signal measured immediately {Perkin Elmer LS55 fluorimeter, excitation 640 nm. Emission spectrum was scanned and fluorescence intensity value at 680 nm recorded}. This was repeated for all cuvettes. The graph of fluorescence intensity versus pH was plotted using PRISM, the data fitted to a sigmoidal dose-response curve and the pKa value extracted as the calculated IC50 value from the fitting.

| Molecule | pKa | lowering of dye pKa relative to dye 1 |
| --- | --- | --- |
| CC1(C)C(/C=C/C=C/C=C2/Nc3ccc(S(=O)(=O)O)cc3C2(C)CCCCCC(=O)O)=[N+](CCCCS(=O)(=O)[O-])c2ccc(Cl)cc21 (stereo not shown) [Example 3] | 7.44 | – |
| CC1(CCCCCC(=O)O)C(/C=C/C=C/C=C2/Nc3c(Cl)cc(Cl)cc3C2(C)C)=[N+](CCCCS(=O)(=O)[O-])c2ccc(S(=O)(=O)O)cc21 (stereo not shown) [Dye 2, 3-(5-carboxypentyl)-2-[(1E,3E,5E)-5-(5,7-dichloro-3,3-dimethyl-1,3-dihydro-2H-indol-2-ylidene)penta-1,3-dienyl]-3-methyl-5-sulfo-1-(4-sulfobutyl)-3H-indolium] | 6.05 | ~1.0 units |
| CC1(CCCCCC(=O)ON2C(=O)CCC2=O)C(/C=C/C=C/C=C2/Nc3c(Cl)cc(S(=O)(=O)O)cc3C2(C)C)=[N+](CCCCS(=O)(=O)[O-])c2ccc(S(=O)(=O)O)cc21 (stereo not shown) [Dye 16.3, 3-(5-Carboxypentyl)-2-[(1E,3E,5E)-5-(7-chloro-3,3-dimethyl-5-sulfo-1,3-dihydro-2H-indol-2-ylidene)penta-1,3-dienyl]-3-methyl-5-sulfo-1-(4-sulfobutyl)-3H-indolium, N-hydroxysuccinimidyl ester] | 6.2 | – |
| CC1(CCCCCC(=O)O)C(/C=C/C=C/C=C2/Nc3c(Cl)cc(S(=O)(=O)O)cc3C2(C)C)=[N+](CCCCS(=O)(=O)[O-])c2ccc(S(=O)(=O)O)cc21 (stereo not shown) [Dye 4, 3-(5-carboxypentyl)-2-[(1E,3E,5E)-5-(7-chloro-3,3-dimethyl-5-sulfo-1,3-dihydro-2H-indol-2-ylidene)penta-1,3-dienyl]-3-methyl-5-sulfo-1-(4-sulfobutyl)-3H-indolium] | 6.2 | – |
| CC1(C)C(/C=C/C=C/C=C2/Nc3ccc(S(=O)(=O)O)cc3C2(C)CCCCCC(=O)O)=[N+](CCCCS(=O)(=O)[O-])c2ccc(S(=O)(=O)O)cc21 (stereo not shown) [Dye 1, 2-{(1E,3E,5E)-5-[3-(5-carboxypentyl)-3-methyl-5-sulfo-1,3-dihydro-2H-indol-2-ylidene]penta-1,3-dienyl}-3,3-dimethyl-5-sulfo-1-(4-sulfobutyl)-3H-indolium] | 7 | – |
| CC1(C)C(/C=C/C=C/C=C2/Nc3ccc(Cl)cc3C2(C)C)=[N+](CCCCS(=O)(=O)[O-])c2ccc(S(=O)(=O)O)cc21 [Dye 7, 2-[(1E,3E,5E)-5-(5-chloro-3,3-dimethyl-1,3-dihydro-2H-indol-2-ylidene)penta-1,3-dienyl]-3,3-dimethyl-5-sulfo-1-(4-sulfobutyl)-3H-indolium] | – | 0.3-0.4 units |
| 3-(5-carboxypentyl)-2-[(1E,3E,5E)-5-(7-chloro-3,3-dimethyl-5-sulfo-1,3-dihydro-2H-indol-2-ylidene)penta-1,3-dienyl]-3-methyl-5-sulfo-1-(4-sulfobutyl)-3H-indolium [Dye 4] | – | ~0.8 units |
| CC1(C)C(/C=C/C=C/C=C2/Nc3ccc(S(=O)(=O)O)cc3C2(C)C)=[N+](CCCCS(=O)(=O)[O-])c2ccc(S(=O)(=O)O)cc21 [Dye 6, 2-[(1E,3E,5E)-5-(3,3-dimethyl-5-sulfo-1,3-dihydro-2H-indol-2-ylidene)penta-1,3-dienyl]-3,3-dimethyl-5-sulfo-1-(4-sulfobutyl)-3H-indolium] | 7 | – |

Second part, the molecule after the results:

| pKa | lowering of dye pKa relative to dye 1 | Molecule |
| --- | --- | --- |
| 7.36 | – | CC1(C)C(/C=C/C=C/C=C2/Nc3ccc(S(=O)(=O)O)cc3C2(C)C)=[N+](CCCCS(=O)(=O)[O-])c2ccc(Cl)cc21 [Example 9] |
| 6.65 | – | CC1(C)C(/C=C/C=C/C=C2/Nc3ccc(Cl)cc3C2(C)C)=[N+](CCCCS(=O)(=O)[O-])c2ccc(S(=O)(=O)O)cc21 [Example 7] |
| 6.65 | – | CC1(C)C(/C=C/C=C/C=C2/Nc3ccc(C#N)cc3C2(C)C)=[N+](CCCCS(=O)(=O)[O-])c2ccc(S(=O)(=O)O)cc21 [Example 8] |
| 7 | – | CC1(C)C(/C=C/C=C/C=C2/Nc3ccccc3C2(C)C)=[N+](CCCCS(=O)(=O)[O-])c2ccc(S(=O)(=O)O)cc21 [Example 5] |
